PubChem BioAssay AID248 (DTP/NCI, 2004)
Several values for one entry are separate records, joined by “and”; a condition that tells them apart may be missing. Equal values may be shown once. Toxic doses and inconclusive results are not listed. No stated cut-off is given here; in the data, active means T/C of 150% or more; inactive means T/C below 125%.

Tested on: L1210 leukemia ip in BDF1 mice, survival T/C
Assay: NCI In Vivo Anticancer Drug Screen. Data for tumor model L1210 Leukemia (intraperitoneal) in B6D2F1 (BDF1) mice
Conditions: endpoint: mean survival time, higher = longer survival
How it was run: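 In this screen, tumor-bearing mice given compound are compared to those given vehicle, and their survival values are reported as a treated-to-control quotient.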

[1] = dose: 100.0 mg/kg/injection, schedule: Q01DX009 (ip), vehicle: Klucel (hydroxypropylcellulose) (HPC)
[2] = dose: 200.0 mg/kg/injection, schedule: Q01DX009 (ip), vehicle: Klucel (hydroxypropylcellulose) (HPC)
[3] = dose: 100.0 mg/kg/injection, schedule: Q04DX003 (ip), vehicle: saline with Tween-80
[4] = dose: 200.0 mg/kg/injection, schedule: Q04DX003 (ip), vehicle: saline with Tween-80
[5] = dose: 400.0 mg/kg/injection, schedule: Q04DX003 (ip), vehicle: saline with Tween-80
[6] = dose: 400.0 mg/kg/injection, schedule: Q01DX009 (ip), vehicle: Klucel (hydroxypropylcellulose) (HPC)
[7] = dose: 100.0 mg/kg/injection, schedule: Q01DX001 (ip), vehicle: carboxymethylcellulose (CMC)
[8] = dose: 200.0 mg/kg/injection, schedule: Q01DX001 (ip), vehicle: carboxymethylcellulose (CMC)
[9] = dose: 400.0 mg/kg/injection, schedule: Q01DX001 (ip), vehicle: carboxymethylcellulose (CMC)
[10] = dose: 50.0 mg/kg/injection, schedule: Q01DX001 (ip), vehicle: saline
[11] = dose: 100.0 mg/kg/injection, schedule: Q01DX001 (ip), vehicle: saline
[12] = dose: 200.0 mg/kg/injection, schedule: Q01DX001 (ip), vehicle: saline
[13] = dose: 400.0 mg/kg/injection, schedule: Q01DX001 (ip), vehicle: saline
[14] = dose: 50.0 mg/kg/injection, schedule: Q01DX009 (ip), vehicle: Klucel (hydroxypropylcellulose) (HPC)
[15] = dose: 100.0 mg/kg/injection, schedule: Q04DX003 (ip), vehicle: Klucel (hydroxypropylcellulose) (HPC)
[16] = dose: 200.0 mg/kg/injection, schedule: Q04DX003 (ip), vehicle: Klucel (hydroxypropylcellulose) (HPC)
[17] = dose: 400.0 mg/kg/injection, schedule: Q04DX003 (ip), vehicle: Klucel (hydroxypropylcellulose) (HPC)
[18] = dose: 100.0 mg/kg/injection, schedule: Q04DX003 (ip), vehicle: saline
[19] = dose: 200.0 mg/kg/injection, schedule: Q04DX003 (ip), vehicle: saline
[20] = dose: 50.0 mg/kg/injection, schedule: Q01DX009 (ip), vehicle: saline

Measured: T/C

C#CC1(NC(c2cc(Cl)cc(Cl)c2O)P(=O)(c2ccccc2)c2ccccc2)CCCCC1 (configuration not stated)
inactive: [1] 94 % of control | [2] 102 % of control

CC(C)(SCc1ccccc1)C(NC(=O)OCc1ccccc1)C(=O)O (configuration not stated)
inactive: dose: 12.5 mg/kg/injection, schedule: Q01DX009 (ip), vehicle: DMSO 92 % of control | dose: 25.0 mg/kg/injection, schedule: Q01DX009 (ip), vehicle: DMSO 92 % of control | dose: 50.0 mg/kg/injection, schedule: Q01DX009 (ip), vehicle: DMSO 88 % of control | dose: 100.0 mg/kg/injection, schedule: Q04DX002 (ip), vehicle: DMSO 95 % of control | dose: 200.0 mg/kg/injection, schedule: Q04DX002 (ip), vehicle: DMSO 97 % of control

N=c1c2ccccc2c2ccccc2n1O
inactive: [3] 96 % of control | [4] 98 % of control | [5] 103 % of control

OC1CCCC(c2ccccc2)C1 (configuration not stated)
inactive: [1] 97 % of control | [2] 97 % of control | [6] 95 % of control

CCCCC(CCCC)(S(=O)(=O)CC)S(=O)(=O)CC
inactive: [7] 104 % of control | dose: 177.6 mg/kg/injection, schedule: Q01DX001 (ip), vehicle: carboxymethylcellulose (CMC) 94 % of control and 104 % of control | [8] 89 % of control | dose: 266.8 mg/kg/injection, schedule: Q01DX001 (ip), vehicle: carboxymethylcellulose (CMC) 98 % of control and 88 % of control | dose: 600.0 mg/kg/injection, schedule: Q01DX001 (ip), vehicle: carboxymethylcellulose (CMC) 98 % of control and 92 % of control

CCOc1ccc(C(=O)OCCCl)cc1
inactive: [3] 110 % of control | [4] 109 % of control | [5] 109 % of control

OC1c2cc(Cl)ccc2-c2c(N=Cc3ccc4c(c3)OCO4)cc(Cl)cc21 (configuration not stated)
inactive: [7] 90 % of control | [8] 90 % of control | [9] 93 % of control

CCCCCCCCCCCCOP(=O)(OCCCCCCCCCCCC)c1ccccc1
inactive: [10] 100 % of control | [11] 97 % of control | [12] 94 % of control | [13] 91 % of control

CC(C)=CCCC(=O)NC(=O)NS(=O)(=O)c1ccc(Cl)cc1
inactive: [14] 109 % of control | [1] 100 % of control | [2] 96 % of control

CN(C)c1ccc([N+](=O)[O-])c2c1CCC2
inactive: [10] 111 % of control | [11] 90 % of control | [12] 106 % of control | [13] 106 % of control

O=CN(N=O)c1ccc(Br)cc1
inactive: dose: 75.0 mg/kg/injection, schedule: Q01DX001 (ip), vehicle: other 96 % of control | dose: 150.0 mg/kg/injection, schedule: Q01DX001 (ip), vehicle: other 101 % of control | dose: 300.0 mg/kg/injection, schedule: Q01DX001 (ip), vehicle: other 103 % of control

CNC(=S)NNc1ccccc1
inactive: [1] 110 % of control | [15] 104 % of control | dose: 100.0 mg/kg/injection, schedule: Q04DX003 (ip), vehicle: gum acacia 98 % of control | [2] 103 % of control | [16] 104 % of control | dose: 200.0 mg/kg/injection, schedule: Q04DX003 (ip), vehicle: gum acacia 96 % of control | [6] 103 % of control | [17] 103 % of control | dose: 400.0 mg/kg/injection, schedule: Q04DX003 (ip), vehicle: gum acacia 101 % of control

Nc1ccccc1C(=O)N/N=C/c1ccccc1Cl
inactive: [1] 102 % of control | [2] 97 % of control | [6] 86 % of control

CNc1nn[nH]n1
inactive: [18] 100 % of control | [19] 93 % of control | dose: 400.0 mg/kg/injection, schedule: Q04DX003 (ip), vehicle: saline 89 % of control

N#C/C(=C\C=C\c1ccccc1)C(=O)O
inactive: dose: 12.5 mg/kg/injection, schedule: Q04DX003 (ip), vehicle: Klucel (hydroxypropylcellulose) (HPC) 96 % of control | dose: 25.0 mg/kg/injection, schedule: Q04DX003 (ip), vehicle: Klucel (hydroxypropylcellulose) (HPC) 107 % of control | dose: 50.0 mg/kg/injection, schedule: Q04DX003 (ip), vehicle: Klucel (hydroxypropylcellulose) (HPC) 96 % of control | [15] 94 % of control

O=C(CSc1ccc([N+](=O)[O-])cc1)c1ccccc1
inactive: [10] 104 % of control | [11] 98 % of control | [12] 91 % of control | [13] 96 % of control

O=[N+]([O-])c1ccc(C=Nc2cccc(C(F)(F)F)c2)cc1
inactive: [1] 90 % of control | [15] 90 % of control | [2] 98 % of control | [16] 95 % of control | [17] 93 % of control

O=C(COc1ccc(Cl)cc1Cl)Nc1cccnc1
inactive: dose: 100.0 mg/kg/injection, schedule: Q01DX001 (ip), vehicle: Klucel (hydroxypropylcellulose) (HPC) 93 % of control | [3] 94 % of control | dose: 200.0 mg/kg/injection, schedule: Q01DX001 (ip), vehicle: Klucel (hydroxypropylcellulose) (HPC) 89 % of control | [4] 94 % of control | dose: 400.0 mg/kg/injection, schedule: Q01DX001 (ip), vehicle: Klucel (hydroxypropylcellulose) (HPC) 96 % of control

Cc1ccc(/C=N/NC(N)=S)nn1
inactive: dose: 100.0 mg/kg/injection, schedule: Q04DX002 (ip), vehicle: saline 117 % of control | dose: 200.0 mg/kg/injection, schedule: Q04DX002 (ip), vehicle: saline 98 % of control

CC1C=CC(c2ccccc2)C2C(=O)OC(=O)C12 (configuration not stated)
inactive: [14] 111 % of control | [1] 101 % of control

CN1CCCCC1(Cc1ccccc1)Cc1ccccc1
inactive: [20] 102 % of control | dose: 100.0 mg/kg/injection, schedule: Q01DX009 (ip), vehicle: saline 90 % of control | [18] 106 % of control | [19] 95 % of control

[Cl][Sn]([Cl])([c]1ccccc1)[c]1ccccc1.c1ccc(-c2nnc(-c3ccccn3)nc2-c2ccccc2)cc1
inactive: dose: 3.12 mg/kg/injection, schedule: Q04DX003 (ip), vehicle: saline with Tween-80 96 % of control | dose: 6.25 mg/kg/injection, schedule: Q04DX003 (ip), vehicle: saline with Tween-80 104 % of control | dose: 6.25 mg/kg/injection, schedule: Q04DX003 (ip), vehicle: saline 93 % of control | dose: 12.5 mg/kg/injection, schedule: Q04DX003 (ip), vehicle: saline with Tween-80 112 % of control | dose: 12.5 mg/kg/injection, schedule: Q04DX003 (ip), vehicle: saline 98 % of control | dose: 25.0 mg/kg/injection, schedule: Q04DX003 (ip), vehicle: saline 120 % of control

COc1cc(/C=N/N)cc(OC)c1OC
inactive: dose: 25.0 mg/kg/injection, schedule: Q04DX002 (ip), vehicle: Klucel (hydroxypropylcellulose) (HPC) 117 % of control | dose: 50.0 mg/kg/injection, schedule: Q04DX002 (ip), vehicle: Klucel (hydroxypropylcellulose) (HPC) 117 % of control | dose: 100.0 mg/kg/injection, schedule: Q04DX002 (ip), vehicle: Klucel (hydroxypropylcellulose) (HPC) 98 % of control and 109 % of control

O[Si](O)([O][Sn]([c]1ccccc1)([c]1ccccc1)[c]1ccccc1)[O][Sn]([c]1ccccc1)([c]1ccccc1)[c]1ccccc1
inactive: dose: 25.0 mg/kg/injection, schedule: Q01DX009 (ip), vehicle: saline with Tween-80 106 % of control | [20] 96 % of control

ClCC1COC(c2ccccc2)O1 (configuration not stated)
inactive: dose: 5.8 mg/kg/injection, schedule: Q01DX Z (ip), vehicle: methylcellulose (MC) 112 % of control | dose: 8.8 mg/kg/injection, schedule: Q01DX Z (ip), vehicle: methylcellulose (MC) 102 % of control | dose: 13.3 mg/kg/injection, schedule: Q01DX Z (ip), vehicle: methylcellulose (MC) 115 % of control | dose: 20.0 mg/kg/injection, schedule: Q01DX Z (ip), vehicle: methylcellulose (MC) 97 % of control

CCc1ccccc1NC(=O)COc1ccc(Cl)cc1
inactive: [1] 98 % of control | [2] 96 % of control | [6] 91 % of control

ICC1COC(CI)CO1 (configuration not stated)
inactive: [7] 97 % of control | [8] 111 % of control and 95 % of control | [9] 95 % of control and 97 % of control

COc1cc(NC(C)=O)c2ncccc2c1
inactive: dose: 100.0 mg/kg/injection, schedule: Q01DX009 (ip), vehicle: saline with Tween-80 99 % of control | dose: 200.0 mg/kg/injection, schedule: Q01DX009 (ip), vehicle: saline with Tween-80 106 % of control
